Test results reported in PMC10812767, “Therapeutic Drug Monitoring of Dalbavancin in Real Life: A Two-Year Experience” (Antibiotics, 2023).

Assays:
[1] = Log-linear regression models describing the time distribution of dalbavancin concentrations; conditions: for Days >4 mg/L / Days >8 mg/L: log-linear regression model, pooled patients
Method: Coupled with the Cmin values, these samples facilitated the development of log-linear regression models describing the time distribution of dalbavancin concentrations for each injection. By targeting the Cmin values for dalbavancin that were not lower than 4 or 8 mg/L, we were able to estimate the number of days needed between each injection to guarantee these targets.
We retrospectively analyzed data from adult patients who received at least 3 doses of dalbavancin for the treatment of osteoarticular and/or periprosthetic joint infections for whom TDM was performed as part of clinical practice. On the day of the scheduled injection, the Cmin for dalbavancin within a 1 h time window before the injection was considered for both Cmin- and Cmax-based TDM. Peak drug concentrations (30 to 60 min after the end of the infusion) were collected only in patients subjected to Cmax-based TDM.
Dalbavacin concentrations were considered both as a continuous variable (expressed as the mean ± standard deviation) and categorical variables, and data (expressed as a percentage) were clustered according to their frequency distribution within the therapeutic ranges proposed in the available literature (>4 or >8 mg/L). Inter-individual variability in the dalbavancin concentrations was calculated as the percentage of the coefficient of variation (CV%). Log-linear regressions were performed using the built-in statistical package in Microsoft Excel (Microsoft Office Software, Microsoft Company, Redmond, WA, USA). The goodness of the log-linear regression models developed by plotting logarithmic concentrations (Y) of dalbavancin with time (X) was quantified using the coefficient of correlation (r). Unpaired t-tests were used to compare the Cmin for dalbavancin, the number of drug injections, and the times of injections between Cmin- and Cmax-based TDM. Statistical significance was set at <0.05 (significant difference) and <0.01 (highly significant difference).

[2] = Therapeutic drug monitoring of plasma dalbavancin concentrations (Cmin, Cmax) by LC-MS/MS; format: in vivo, human (patients)
Text: This study involved a retrospective analysis of TDM that was routinely carried out by the ASST Fatebenefratelli Sacco University Hospital (Milan, Italy) from December 2021 to November 2023; the analysis included samples that were collected within our hospital and those received from other hospitals (our laboratory is a reference laboratory for the TDM of dalbavancin in Lombardy Region, Italy). This service also included the on-demand estimation of the next dalbavancin injection. This estimation required the collection of both the Cmin and the Cmax for dalbavancin. […] Plasma blood samples with dalbavancin were assessed by using ethylene diamine tetra-acetic acid (EDTA)-containing Vacutainers®. All samples were centrifuged at 3000× g, and the plasma was separated and stored at −20 °C. Dalbavancin quantification was performed through a validated LC-MS/MS method that was developed and validated according to the EMA guidelines. The analytical process consisted of a fast protein precipitation protocol of 50 µL of plasma with 400 µL of precipitation solution (methanol/acetonitrile 3/1), centrifugation at 10,000× g, 1:3 dilutions with water, and analysis. […] Waters, Milan, Italy). For quantification, analysis was performed in the ESI-positive mode by monitoring the transition (m/z = 909.45 > 340.2) for dalbavancin.

[3] = cited from earlier work

With `CN[C@H]1C(=O)N[C@@H]2Cc3ccc(cc3)Oc3cc4cc(c3O[C@@H]3O[C@H](C(=O)O)[C@@H](O)[C@H](O)[C@H]3NC(=O)CCCCCCCCC(C)C)Oc3ccc(cc3Cl)[C@@H](O)[C@@H]3NC(=O)[C@H](NC(=O)[C@@H]4NC(=O)[C@@H](NC2=O)c2cc(cc(O)c2Cl)Oc2cc1ccc2O)c1ccc(O)c(c1)-c1c(O[C@H]2O[C@H](CO)[C@@H](O)[C@H](O)[C@@H]2O)cc(O)cc1[C@@H](C(=O)NCCCN(C)C)NC3=O` [dalbavancin] as the compound, how does the “Days >4 mg/L” value ([1]; 2nd injection) read?
The value was 52 days.

And the “Days >8 mg/L” value ([1]; 2nd injection)?
Its value is 42 days.

And the “Days >4 mg/L” value ([1]; 3rd injection)?
The value was 52 days.

And the “Days >8 mg/L” value ([1]; 3rd injection)?
Its value is 43 days.

And the “Days >4 mg/L” value ([1]; 4th injection)?
The value was 59 days.

What about the “Days >8 mg/L” value ([1]; 4th injection) of the same compound?
Its value is 48 days.

And the “Days >4 mg/L” value ([1]; 5th injection)?
The value was 56 days.

And the “Days >8 mg/L” value ([1]; 5th injection)?
The value was 45 days.

And the “Days >4 mg/L” value ([1]; 6th injection)?
The value was 53 days.

And the “Days >8 mg/L” value ([1]; 6th injection)?
The value was 44 days.

And the “Days >4 mg/L” value ([1]; >6 injections)?
Its value is 52 days.

And the “Days >8 mg/L” value ([1]; >6 injections)?
Its value is 42 days.

What about the “Days >4 mg/L” value ([1]; Overall) of the same compound?
Its value is 54 days.

What about the “Days >8 mg/L” value ([1]; Overall) of the same compound?
The value was 44 days.

What about the “Days between injections needed to maintain Cmin >8 mg/L” value ([1]; estimated from pooled log-linear regression models, range over injections) of the same compound?
Its value is 42 to 48 days.

And the “Cmax of dalbavancin, range” value ([2]; 107 TDM assessments, plasma, 30 to 60 min after end of infusion, LC-MS/MS, range)?
The value was 74.9 to 995.6 µg/mL.

And the “Dalbavancin Cmin CV%” value ([2]; Cmax-based TDM, 2nd injection)?
Its value is 44%.

What about the “Dalbavancin Cmin CV%” value ([2]; Cmax-based TDM, 3rd injection) of the same compound?
The value was 46%.

What about the “Dalbavancin Cmin CV%” value ([2]; Cmax-based TDM, 4th injection) of the same compound?
The value was 40%.

And the “Dalbavancin Cmin CV%” value ([2]; Cmax-based TDM, 5th injection)?
The value was 21%.

And the “Dalbavancin Cmin CV%” value ([2]; Cmax-based TDM, 6th injection)?
The value was 32%.

And the “Dalbavancin Cmin CV%” value ([2]; Cmax-based TDM, ≥6 injections)?
The value was 32%.

What about the “Dalbavancin Cmin CV%” value ([2]; Cmin-based TDM, 2nd injection) of the same compound?
The value was 45%.

And the “Dalbavancin Cmin CV%” value ([2]; Cmin-based TDM, 3rd injection)?
Its value is 57%.

And the “Dalbavancin Cmin CV%” value ([2]; Cmin-based TDM, 4th injection)?
The value was 43%.

What about the “Dalbavancin Cmin CV%” value ([2]; Cmin-based TDM, 5th injection) of the same compound?
Its value is 56%.

And the “Dalbavancin Cmin CV%” value ([2]; Cmin-based TDM, 6th injection)?
Its value is 41%.

What about the “Dalbavancin Cmin CV%” value ([2]; Cmin-based TDM, ≥6 injections) of the same compound?
Its value is 37%.

And the “Cmin for dalbavancin, range” value ([2]; human, in vivo, iv)?
The value was 4.1 to 70.5 µg/mL.

And the “Cmin for dalbavancin before the second injection” value ([2]; human, in vivo, iv, SD)?
The value was 39.6 ± 35.4 µg/mL.

And the “Cmin for dalbavancin, mean” value ([2]; human, in vivo, iv, SD)?
The value was 20.7 ± 14.0 µg/mL.

What about the Cmax ([2]; human, in vivo, SD) of the same compound?
The Cmax was 310 ± 158 µg/mL.

And the terminal half-life ([3]; ref [1],[2],[3],[4])?
Its terminal half-life is > 14 days.

And the “total volume of distribution” value ([3]; ref [2],[3])?
Its value is ~16 L.
